Experimental data as given in PubChem BioAssay (NCI).
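Growth conditions: 96-well plates. Treatment: test compound, 48 hours, 5 concentrations. Analysis: linear interpolation between bracketing concentrations; unreached endpoints set to highest concentration. The concentration for 50% growth inhibition is given as GI50. Definition used: TGI = concentration required for complete inhibition of growth.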

Columns and labels:
Experiment in all cases: NCI-60 cell line screen, 48 h
TK-10 renal = test system: TK-10 renal
CAKI-1 renal = test system: CAKI-1 renal
OVCAR-3 ovarian = test system: OVCAR-3 ovarian
IGROV1 ovarian = test system: IGROV1 ovarian
HCT-15 colon = test system: HCT-15 colon
MOLT-4 leukemia = test system: MOLT-4 leukemia
HCC-2998 colon = test system: HCC-2998 colon
SNB-75 CNS = test system: SNB-75 CNS
SK-MEL-28 melanoma = test system: SK-MEL-28 melanoma
ACHN renal = test system: ACHN renal
NCI-H522 lung = test system: NCI-H522 lung
UACC-62 melanoma = test system: UACC-62 melanoma
HT29 colon = test system: HT29 colon
SK-MEL-2 melanoma = test system: SK-MEL-2 melanoma
CCRF-CEM leukemia = test system: CCRF-CEM leukemia
UACC-257 melanoma = test system: UACC-257 melanoma
A498 renal = test system: A498 renal
UO-31 renal = test system: UO-31 renal
HOP-92 NSCLC = test system: HOP-92 NSCLC
SR leukemia = test system: SR leukemia
T-47D breast = test system: T-47D breast
K-562 leukemia = test system: K-562 leukemia
SF-295 CNS = test system: SF-295 CNS
SF-539 CNS = test system: SF-539 CNS
BT-549 breast = test system: BT-549 breast
MDA-MB-435 = test system: MDA-MB-435
OVCAR-5 ovarian = test system: OVCAR-5 ovarian
NCI-H226 lung = test system: NCI-H226 lung
SNB-19 CNS = test system: SNB-19 CNS
LOX IMVI melanoma = test system: LOX IMVI melanoma
COLO 205 colon = test system: COLO 205 colon
SK-MEL-5 melanoma = test system: SK-MEL-5 melanoma
786-0 renal = test system: 786-0 renal
SK-OV-3 ovarian = test system: SK-OV-3 ovarian
PC-3 prostate = test system: PC-3 prostate
MALME-3M melanoma = test system: MALME-3M melanoma
DU-145 prostate = test system: DU-145 prostate
NCI/ADR-RES ovarian = test system: NCI/ADR-RES ovarian
RXF 393 renal = test system: RXF 393 renal
HS 578T breast = test system: HS 578T breast
MCF7 breast = test system: MCF7 breast
RPMI-8226 leukemia = test system: RPMI-8226 leukemia
KM12 colon = test system: KM12 colon
SW-620 colon = test system: SW-620 colon
NCI-H460 lung = test system: NCI-H460 lung
EKVX NSCLC = test system: EKVX NSCLC
HL-60(TB) leukemia = test system: HL-60(TB) leukemia
HCT-116 colon = test system: HCT-116 colon
MDA-MB-231 breast = test system: MDA-MB-231 breast
M14 melanoma = test system: M14 melanoma
NCI-H23 lung = test system: NCI-H23 lung
U251 CNS = test system: U251 CNS
OVCAR-8 ovarian = test system: OVCAR-8 ovarian
SN12C renal = test system: SN12C renal
HOP-62 NSCLC = test system: HOP-62 NSCLC
OVCAR-4 ovarian = test system: OVCAR-4 ovarian
SF-268 CNS = test system: SF-268 CNS
A549 NSCLC = test system: A549 NSCLC

SMILES: CC(C)(C)Nc1nc2c(OCCc3ccccc3)cccn2c1-c1ccc(Cl)cc1
- GI50 (TK-10 renal): 25.3 µM
- TGI (TK-10 renal): 79.5 µM
- GI50 (CAKI-1 renal): 25.1 µM
- TGI (CAKI-1 renal): > 100 µM
- GI50 (OVCAR-3 ovarian): 16.4 µM
- TGI (OVCAR-3 ovarian): 64.8 µM
- GI50 (IGROV1 ovarian): 25.7 µM
- TGI (IGROV1 ovarian): > 100 µM
- GI50 (HCT-15 colon): 17.3 µM
- TGI (HCT-15 colon): 43.1 µM
- GI50 (MOLT-4 leukemia): 18.3 µM
- TGI (MOLT-4 leukemia): 95.5 µM
- GI50 (HCC-2998 colon): 28.1 µM
- TGI (HCC-2998 colon): > 100 µM
- GI50 (SNB-75 CNS): 17.6 µM
- TGI (SNB-75 CNS): > 100 µM
- GI50 (SK-MEL-28 melanoma): 27.6 µM
- TGI (SK-MEL-28 melanoma): > 100 µM
- GI50 (ACHN renal): 27.3 µM
- TGI (ACHN renal): > 100 µM
- GI50 (NCI-H522 lung): 16.1 µM
- TGI (NCI-H522 lung): 54.3 µM
- GI50 (UACC-62 melanoma): 16 µM
- TGI (UACC-62 melanoma): 38.3 µM
- GI50 (HT29 colon): 19.7 µM
- TGI (HT29 colon): 53.6 µM
- GI50 (SK-MEL-2 melanoma): 12.8 µM
- TGI (SK-MEL-2 melanoma): 28.8 µM
- GI50 (CCRF-CEM leukemia): 29.9 µM
- TGI (CCRF-CEM leukemia): 97.2 µM
- GI50 (UACC-257 melanoma): 26.4 µM
- TGI (UACC-257 melanoma): 89.9 µM
- GI50 (A498 renal): 15.2 µM
- TGI (A498 renal): 62.1 µM
- GI50 (UO-31 renal): 11.3 µM
- TGI (UO-31 renal): 39.7 µM
- GI50 (HOP-92 NSCLC): 17.4 µM
- TGI (HOP-92 NSCLC): 67.2 µM
- GI50 (SR leukemia): 19.3 µM
- TGI (SR leukemia): > 100 µM
- GI50 (T-47D breast): 17.7 µM
- TGI (T-47D breast): > 100 µM
- GI50 (K-562 leukemia): 26.4 µM
- TGI (K-562 leukemia): > 100 µM
- GI50 (SF-295 CNS): 24.8 µM
- TGI (SF-295 CNS): 61.8 µM
- GI50 (SF-539 CNS): 18.5 µM
- TGI (SF-539 CNS): 37.8 µM
- GI50 (BT-549 breast): 19.6 µM
- TGI (BT-549 breast): 49.5 µM
- GI50 (MDA-MB-435): 30.3 µM
- TGI (MDA-MB-435): > 100 µM
- GI50 (OVCAR-5 ovarian): 23.7 µM
- TGI (OVCAR-5 ovarian): > 100 µM
- GI50 (NCI-H226 lung): 18.1 µM
- TGI (NCI-H226 lung): 60 µM
- GI50 (SNB-19 CNS): 32.3 µM
- TGI (SNB-19 CNS): > 100 µM
- GI50 (LOX IMVI melanoma): 17.1 µM
- TGI (LOX IMVI melanoma): 33.3 µM
- GI50 (COLO 205 colon): 16.4 µM
- TGI (COLO 205 colon): 34.7 µM
- GI50 (SK-MEL-5 melanoma): 17 µM
- TGI (SK-MEL-5 melanoma): 32.6 µM
- GI50 (786-0 renal): 19.4 µM
- TGI (786-0 renal): 45.2 µM
- GI50 (SK-OV-3 ovarian): 24.5 µM
- TGI (SK-OV-3 ovarian): 75.7 µM
- GI50 (PC-3 prostate): 25.3 µM
- TGI (PC-3 prostate): > 100 µM
- GI50 (MALME-3M melanoma): 23.9 µM
- TGI (MALME-3M melanoma): 59 µM
- GI50 (DU-145 prostate): 25 µM
- TGI (DU-145 prostate): > 100 µM
- GI50 (NCI/ADR-RES ovarian): 21.6 µM
- TGI (NCI/ADR-RES ovarian): 82.4 µM
- GI50 (RXF 393 renal): 13.4 µM
- TGI (RXF 393 renal): 35.6 µM
- GI50 (HS 578T breast): 20.8 µM
- TGI (HS 578T breast): 77.5 µM
- GI50 (MCF7 breast): 21.1 µM
- TGI (MCF7 breast): 93.5 µM
- GI50 (RPMI-8226 leukemia): 20.8 µM
- TGI (RPMI-8226 leukemia): 60.4 µM
- GI50 (KM12 colon): 22.2 µM
- TGI (KM12 colon): 69.9 µM
- GI50 (SW-620 colon): 28.1 µM
- TGI (SW-620 colon): > 100 µM
- GI50 (NCI-H460 lung): 18.9 µM
- TGI (NCI-H460 lung): 50.5 µM
- GI50 (EKVX NSCLC): 22.5 µM
- TGI (EKVX NSCLC): 86 µM
- GI50 (HL-60(TB) leukemia): 25.7 µM
- TGI (HL-60(TB) leukemia): 74.5 µM
- GI50 (HCT-116 colon): 17.6 µM
- TGI (HCT-116 colon): 43.4 µM
- GI50 (MDA-MB-231 breast): 16.7 µM
- TGI (MDA-MB-231 breast): 35 µM
- GI50 (M14 melanoma): 26.3 µM
- TGI (M14 melanoma): 71.2 µM
- GI50 (NCI-H23 lung): 25.3 µM
- TGI (NCI-H23 lung): 83.4 µM
- GI50 (U251 CNS): 18.7 µM
- TGI (U251 CNS): 48.7 µM
- GI50 (OVCAR-8 ovarian): 27.1 µM
- TGI (OVCAR-8 ovarian): > 100 µM
- GI50 (SN12C renal): 22.4 µM
- TGI (SN12C renal): > 100 µM
- GI50 (HOP-62 NSCLC): 20.2 µM
- TGI (HOP-62 NSCLC): 52.8 µM
- GI50 (OVCAR-4 ovarian): 26.7 µM
- TGI (OVCAR-4 ovarian): > 100 µM
- GI50 (SF-268 CNS): 27.1 µM
- TGI (SF-268 CNS): > 100 µM
- GI50 (A549 NSCLC): 24 µM
- TGI (A549 NSCLC): > 100 µM
